Laboratory results published in patent publication US12528840B2, “Transcription active complex targeting cancer drug from viral protein sequence” (The Regents of the University of California, priority 2020, dated 2026).

Tests used:
[1] = tested on: multiple cancer cell lines; experiment: MTT assay on multiple cancer cell lines; assay type: cell-based; details: 0-96 μM; BCBL-1, Ramos, SU-DHL-10, HH, Jurkat, THP-1, U937, A549
Description: (§1) FIG. 6. Viral and cellular responses to K-Rta peptide; identification of VGN50. (a) Protein sequence alignment. FIG. 6(A) The effect of VGN50 on various cancer cell types. MTT assays were performed with the indicated cell lines treated with various VGN50 concentrations. The O.D. of mock-treated samples were set as 100%, and O.D. from detergent treated cells were set as 0%. Percentage viability+/−SD was calculated for each treatment (N=3 samples/treatment). FIG. 6(B) Viability assay with flow cytometry. Cell viability was measured in triplicate with live/dead staining and the cell killing effects on cancer cells was compared with normal peripheral blood mononuclear cells (PBMC) from three healthy donors. Results are presented as percentage viability+/−SD deviation (N=3 samples/group).
(§2) As shown in FIG. 6(a), multiple cancer cell lines were used for MTT assay to evaluate cancer cell killing efficacies of the MBK50 peptide at different concentrations (cell variability studies). […] Importantly, human peripheral blood mononuclear cells (PBMCs) from healthy donors were approximately 10-fold less sensitive to MBK-mediated killing compared to myeloid and lymphoid cancer cell lines (e.g., THP-1 and BCBL-1) as assessed by flow cytometry after live/dead staining (FIG. 6(b)). […]

[2] = tested on: human peripheral blood mononuclear cells (PBMCs); experiment: Viability by flow cytometry after live/dead staining, PBMC versus cancer cell lines; assay type: cell-based; details: healthy donor PBMCs vs e.g. THP-1 and BCBL-1
Description: as §1, §2

MYC = experiment: qRT-PCR of MYC expression; assay type: cell-based; details: qRT-PCR with specific primers
Description: FIGS. 1A-H. Viral protein sequence based cancer drug. (FIG. 1A) Discovery of hijacking transcription machinery in KSHV reactivating cells (Chen et al., J. Virol 2017). […] (FIG. 1B) Reporter assay. KSHV ORF50 overexpression inhibits MYC activation. (FIG. 1C) Chromatin immunoprecipitation with Mass Spectrometry. Proteins inducibly interact with both ORF50 and RNA polII are shown. […] (FIG. 1E) Mapping of interacting domain. GST-pull down was performed to identify NCoA2 binding domains. Purified NCoA2 was made from recombinant baculovirus infected cells and KSHV ORF50 deletion proteins were made in E. coli. Peptides are then generated as TAT-fusion for cell penetration. (FIG. 1F) ChIP-seq and RNA-seq. ChIP-seq was performed to identify NCOA2 target genes in primary effusion lymphoma cells. NCoA2 localization is highly associated with active genes and localizes with RNA pol II at enhancer regions. […] The qRT-PCR was performed with specific primers. (FIG. 1H) Gene set enrichment analyses (GSEA). RNA sequencing was performed with peptide-treated PEL cells. […] (FIG. 1I) The peptide drug. Wt peptide or mutant peptide was incubated in culture media. Forty-eight hours later, live cells were measured by applying MTS. Cell viability was compared with no-treated samples. No treated sample was set as 1.

SWI/SNF components = experiment: ELISA-based binding assay with purified SWI/SNF components; details: biotin-conjugated peptide, HRP-streptavidin detection
Excerpt: FIG. 17(a) SDS-PAGE analysis of five SWI/SNF components individually prepared from baculovirus infected Sf9 cells. FIG. 17(b) A schematic illustration of ELISA assay to evaluate VGN50 and SWI/SNF interaction. FIG. 17(c) Analysis of VGN50 binding to SWI/SNF components by ELISA. Peptide binding measured as OD values at 450 nm are shown. Mean OD values were compared between the VGN50 and Mut-P in each concentration using unpaired t-test. **p<0.01, *p<0.05, NS: no significance. Data are presented as mean±SD.
To confirm the basis of VGN50 (a.k.a. MBK50) mechanism of action, the biochemical interaction between VGN50 and SWI/SNF proteins (i.e., VGN50 target molecules), were examined by ELISA-based binding assays using purified 5 individual SWI/SNF components prepared from baculovirus-infected Sf9 cells (FIG. 17a). Increasing concentrations of biotin-conjugated VGN50 or Mut-P were incubated in an ELISA plate coated with each SWI/SNF component, and the bound peptides were detected by HRP-streptavidin (FIG. 17b).

LSSILQGLYQLDT [MBK50]
cancer cell killing efficacy across cell lines [1]: more effective to lymphoid cell lines
lower sensitivity of PBMCs to killing compared to myeloid and lymphoid cancer cell lines [2]: approximately 10 fold
MYC expression (MYC): Down modulation
lowest concentration at which peptide bound the 5 SWI/SNF components (SWI/SNF components): 50 nM
